Reference: patent US7718377B2, “Insulin resistance curative and method of screening the same” (Kyoto Pharmaceutical Industries, Ltd., priority 2003, dated 2010)

Experiments:
human PTP-1B (1-321) = target: T1, human PTP-1B (1-321) (Homo sapiens, UniProt P18031); assay: Determination of PTP-1B enzyme inhibitory activity (phosphopeptide substrate, malachite green); format: biochemical; settings: each compound 100 μM; peptide substrate, 37° C., 10 min
T1 construct: ID No.2; made in house; host or cells: Escherichia coli BL21 DE3 (plasmid pET-hPTP1B (1-321), vector pET-11c)
T1 sequence (P18031 1-321): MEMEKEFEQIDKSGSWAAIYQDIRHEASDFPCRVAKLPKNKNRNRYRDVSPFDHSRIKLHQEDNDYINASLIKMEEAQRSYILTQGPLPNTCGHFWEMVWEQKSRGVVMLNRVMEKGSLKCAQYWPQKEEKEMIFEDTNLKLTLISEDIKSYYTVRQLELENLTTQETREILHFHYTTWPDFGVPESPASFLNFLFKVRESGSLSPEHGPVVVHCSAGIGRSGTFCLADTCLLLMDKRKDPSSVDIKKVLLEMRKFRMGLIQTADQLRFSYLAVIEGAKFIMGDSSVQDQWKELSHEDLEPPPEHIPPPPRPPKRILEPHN
Text: As the substrates for PTP-1B enzyme reaction, synthetic peptides consisting of the following amino acid sequence: • Thr-Arg-Asp-Ile-Tyr (PO4)-Glu-Thr-Asp-Tyr (PO4)-Tyr (PO4)-Arg-Lys (SEQ; NO. 5), wherein 3 tyrosines had been all phosphorylated, were used (synthesis committed to Shimadzu Scientific Research Inc. (Chiyoda-ku, Tokyo)). [According to the amino acid numbers based on the report of Ullrich et al. (Nature, vol. 313, pages 756-761, 1985), this amino acid sequence corresponds to Nos. 1142-1153 of insulin receptor, and corresponds to Nos. 1169-1180 in the amino acid sequence of the insulin receptor precursor registered in Genbank No. X02160.]
This peptide substrate and a PTP-1B enzyme were reacted and the enzyme activity was determined by quantitation of inorganic phosphoric acid released from the substrate by the reaction. The decreased enzyme activity in the presence of a test compound during the enzyme reaction was taken as the enzyme inhibitory activity. Specifically, the following method was performed.
A peptide substrate (synthesis committed to Shimadzu Scientific Research Inc.) was dissolved in a buffer (20 mM imidazole (pH 7.0), 50 mM NaCl, 5 mM DTT and 2.5 mM EDTA) to 300 μM, and cryopreserved.
The PTP-1B solution obtained earlier was diluted with a buffer (20 mM imidazole (pH 7.0), 50 mM NaCl, 5 mM DTT, 2.5 mM EDTA, and 0.05% Nonidet P-40) to 200 ng/ml.
A 96 well microtiter plate [Costar 3695 (half area) Corning] was used and a buffer [39 μl, 20 mM imidazole (pH 7.0), 50 mM NaCl, 5 mM DTT, 2.5 mM EDTA], a PTP-1B enzyme solution (5 μl), and a solution (5 mM, 1 μl) of a test compound in dimethylsulfoxide (DMSO) were added to each well. As a control, solvent (DMSO, 1 μl) was added instead of the DMSO solution of test compound. After preincubation at 37° C. for about 10 min, a peptide substrate solution (300 μM, […]) was added and the mixture was incubated at 37° C. for 10 min.
For quantitation of released inorganic phosphoric acid, malachite green solution (90 μl, manufactured by BIOMOL Research Laboratories, Inc.) was added to each well, and the mixture was left standing at room temperature for about 10 min and the absorbance at 650 nm was measured with a microplate reader. Linearity was mostly observed between the absorbance and the phosphoric acid concentration generally within the absorbance range of from 0.05 to 0.6 (phosphoric acid from about […]) under these conditions.
The PTP-1B inhibitory activity of the test compound was obtained by the following calculation formula. Inhibitory activity (%)=[…]

[1] = target: T2, GAL4-PPARγ chimeric receptor (human PPARγ ligand binding site) (Homo sapiens, UniProt P37231); assay: Determination of PPARγ activation ability (GAL4-PPARγ luciferase reporter assay in HEK293 cells); format: cell-based; settings: each compound 1 μM; amount of luminescence relative to control; value greater than 1 = activation ability
T2 construct: a GAL4-PPARγ chimeric receptor containing amino acid Nos. 1-147 of yeast transcription factor GAL4 on the amino terminal and Nos. 175-475; expressed in transfected cells; host or cells: HEK293 (plasmid pM-PPARγ co-transfected with reporter pFR-Luc)
Experimental: As a method for determining the ability of a compound to activate PPARγ (hereinafter PPARγ activation ability), a test by a reporter assay was performed with reference to the report of Kliewer et al. (Journal of Biological Chemistry, 1995, vol. 270(22), p. 12953-12956).
With reference to the report of Kliewer, a gene expressing a GAL4-PPARγ receptor, wherein human PPARγ ligand binding site (corresponding to about 300 amino acids on carboxy terminal) is bound with a DNA binding site (corresponding to 147 amino acids on amino terminal region) of yeast transcription factor GAL4, was prepared.
The plasmid pM-PPARγ obtained earlier, and plasmid pFR-Luc purchased from [sequence] CLONING SYSTEMS were each dissolved in desalted water to a concentration of 1 mg/1 ml.
A human fetal kidney-derived cell line HEK293 (American Type Culture Collection CRL-1573) was sown in a 75 cm^2 culture flask, and cultured in Dulbecco's Modified Eagle medium containing 10% fetal bovine serum (hereinafter a medium) under the conditions of 37° C., 5% CO2 until it reached nearly 80% confluent.
Using 7.5 μg of plasmid pM-PPARγ and 7.5 μg of plasmid pFR-Luc, both per flask, as well as a FuGENE6 transfection reagent (manufactured by Rosch Diagnostics) the plasmids were transfected to HEK293 cells and cultured overnight.
The next day, the cells were treated with trypsin and recovered. A 96 well plate coated with poly-L-lysine (IWAKI poly-L-lysine coated 96 well plate, manufactured by ASAHI TECHNOGLASS) was prepared, the cells were sown at about 50,000 cells/well, 90 μl, using the medium and cultured overnight.
The test compound was dissolved in DMSO at a concentration of 10 mM. This was diluted 1,000-fold with the medium, and 10 μl therefrom was added to the well in which cells were growing. The treatment concentration in the cell was 1 μM. After the addition, the cells were cultured overnight.
The next day, the medium was removed, and the cells were washed with phosphate buffered saline containing 1 mM magnesium and 1 mM calcium chloride. PicaGene LT FR manufactured by Wako Pure Chemical Industries, Ltd. was diluted 2-fold with the same saline and the solution was added to each well by 200 μl. After standing the mixture for about 1 hr, it was stirred and 180 μl thereof was taken from each well and placed in a white 96 well plate (OptiPlate 96, manufactured by Packard), applied to TopCount (manufactured by Packard) and the amount of luminescence of each well was measured for 6 seconds.
The PPARγ activation ability of the test compound was determined by the following calculation formula: PPARγ activation ability=(amount of luminescence [in the presence of each compound (1 μM)]}/[amount of luminescence (control)]

male Zucker Fatty rats = assay: Expression suppressive action on edema and the like: 2-week oral administration, insulin and blood cell parameters; format: in vivo, rat
Text: For the test, male Zucker Fatty rats (6-week-old, Japan SLC) were used. During the acclimation period for 1 week and test period, feed (FR-2 (Funabashi Farm)) and water were freely given.
Blood was taken from the tail vain using a heparin-coated hematocrit tube and an EDTA-added hematocrit tube, and a part thereof was preserved as a whole blood and the rest was centrifuged and plasma was collected and subjected to the measurement of biochemical parameter (insulin). For insulin measurement, a rat Insulin RIA kit (US Linco) was used, and all the samples were collectively measured after the completion of administration. The whole blood sample was subjected to the measurement of blood cell parameters (erythrocyte concentration, hemoglobin concentration) using an automatic blood cell measurement apparatus (KX-21N, Sysmex Corporation).
At the beginning of the test, blood was taken from all the rats, and randomly grouped to make the parameters (body weight, erythrocyte, hemoglobin and the like) almost the same. […] The start of the administration was day 0, and the animals were fasted for about 16 hr from the evening of day 13. Blood was taken and measured for each parameter.

T2 sequence (P37231 with tags, fused parts or gaps): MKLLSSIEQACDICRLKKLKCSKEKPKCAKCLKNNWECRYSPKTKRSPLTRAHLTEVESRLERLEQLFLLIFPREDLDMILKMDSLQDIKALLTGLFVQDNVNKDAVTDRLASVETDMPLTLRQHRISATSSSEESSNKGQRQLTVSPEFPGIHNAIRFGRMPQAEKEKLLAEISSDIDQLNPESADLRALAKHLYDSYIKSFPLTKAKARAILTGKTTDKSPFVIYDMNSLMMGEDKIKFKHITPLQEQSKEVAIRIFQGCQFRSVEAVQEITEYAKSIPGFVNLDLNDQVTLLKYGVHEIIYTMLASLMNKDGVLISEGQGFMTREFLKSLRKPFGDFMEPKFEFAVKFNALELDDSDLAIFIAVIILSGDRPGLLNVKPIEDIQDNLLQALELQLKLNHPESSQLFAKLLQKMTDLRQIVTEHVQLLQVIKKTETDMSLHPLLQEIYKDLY

SMILES	inhibitory activity (%) (human PTP-1B (1-321))	PPARγ activation ability [1]	also measured
CC(C)(C)N.CC=CC=CC(=O)N1Cc2cc(OCCc3nc(/C=C/C4CCCC4)oc3C)ccc2C[C@H]1C(=O)O (stereo in doubt) [Reference Example 22, 7-{2-[2-(trans-2-cyclopentylvinyl)-5-methyloxazol-4-yl]ethoxy}-2-(2,4-hexadienoyl)-1,2,3,4-tetrahydroisoquinoline-(3S)-carboxylic acid tert-butylamine Salt]	95	5.1	–
CC(C)(C)N.CCCCC=CC(=O)N1Cc2cc(OCCc3nc(/C=C/CC(C)C)oc3C)ccc2C[C@H]1C(=O)O (stereo in doubt) [Reference Example 24, 2-(2-heptenoyl)-7-{2-[5-methyl-2-(4-methyl-trans-1-penten-1-yl)oxazol-4-yl]ethoxy}-1,2,3,4-tetrahydroisoquinoline-(3S)-carboxylic acid tert-butylamine Salt]	92	9.4	–
CC(C)(C)N.CC=CC=CC(=O)N1Cc2cc(OCCc3nc(/C=C/CCCC)oc3C)ccc2C[C@H]1C(=O)O (stereo in doubt) [Reference Example 27, 2-(2,4-hexadienoyl)-7-{2-[2-(trans-1-hexen-1-yl)-5-methyloxazol-4-yl]ethoxy}-1,2,3,4-tetrahydroisoquinoline-(3S)-carboxylic acid tert-butylamine Salt]	88	5.9	–
CC(C)(C)N.CC=CC=CC(=O)N1Cc2cc(OCCc3nc(/C=C/CCC(C)C)oc3C)ccc2C[C@H]1C(=O)O (stereo in doubt) [Reference Example 30, 2-(2,4-hexadienoyl)-7-{2-[5-methyl-2-(5-methyl-trans-1-hexen-1-yl)oxazol-4-yl]ethoxy}-1,2,3,4-tetrahydroisoquinoline-(3S)-carboxylic acid tert-butylamine Salt]	96	6.2	hemoglobin concentration (male Zucker Fatty rats; 30 mg/kg, po, once-daily, 2 consecutive weeks, FIG. 1): somewhat lower than those of the control group, but maintained at a remarkably high level as compared to the rosiglitazone administration group; insulin lowering action (blood insulin concentration) (male Zucker Fatty rats; 30 mg/kg, po, once-daily, 2 consecutive weeks, FIG. 2): equivalent to that of the rosiglitazone; erythrocyte concentration (male Zucker Fatty rats; 30 mg/kg, po, once-daily, 2 consecutive weeks, FIG. 3): somewhat lower than those of the control group, but maintained at a remarkably high level as compared to the rosiglitazone administration group; blood dilution (decrease in the concentrations of hemoglobin and erythrocyte) (male Zucker Fatty rats; compared with rosiglitazone administration group): markedly suppressed
CC(C)(C)N.CC=CC=CC(=O)N1Cc2cc(OCCc3nc(/C(C)=C/CCC)oc3C)ccc2C[C@H]1C(=O)O (stereo in doubt) [Reference Example 33, 2-(2,4-hexadienoyl)-7-{2-[5-methyl-2-(1-methyl-trans-1-penten-1-yl)oxazol-4-yl]ethoxy}-1,2,3,4-tetrahydroisoquinoline-(3S)-carboxylic acid tert-butylamine Salt]	92	6.5	–
CC(C)(C)N.CC=CC=CC(=O)N1Cc2cc(OCCc3nc(/C=C/C4CCCCC4)oc3C)ccc2C[C@H]1C(=O)O (stereo in doubt) [Reference Example 40, 7-{2-[2-(trans-2-cyclohexylvinyl)-5-methyloxazol-4-yl]ethoxy}-2-(2,4-hexadienoyl)-1,2,3,4-tetrahydroisoquinoline-(3S)-carboxylic acid tert-butylamine Salt]	90	5.4	–
CC(C)(C)N.CC=CC=CC(=O)N1Cc2cc(OCCc3nc(/C=C/CCCF)oc3C)ccc2C[C@H]1C(=O)O (stereo in doubt) [Reference Example 66, 7-{2-[2-(5-fluoro-trans-1-penten-1-yl)-5-methyloxazol-4-yl]ethoxy}-2-(2,4-hexadienoyl)-1,2,3,4-tetrahydroisoquinoline-(3S)-carboxylic Acid tert-butylamine Salt]	80	3.0	–
CC(C)(C)N.CC=CC=CC(=O)N1Cc2cc(OCCc3coc(/C(C)=C/CCC)n3)ccc2C[C@H]1C(=O)O (stereo in doubt) [Reference Example 83, 2-(2,4-hexadienoyl)-7-{2-[2-(1-methyl-trans-1-penten-1-yl)oxazol-4-yl]ethoxy}-1,2,3,4-tetrahydroisoquinoline-(3S)-carboxylic Acid-tert-butylamine Salt]	82	3.1	–
CN(CCOc1ccc(CC2SC(=O)NC2=O)cc1)c1ccccn1 (stereo not drawn) [Rosiglitazone, reference compound]	–	–	inhibition at 100 µM (human PTP-1B (1-321)): < 10%
